Laboratory results published in patent EP0655506B1 (priority 1994, dated 1995).

Tests used:
[1] = biological target: T1, T7 DNA polymerase (28 amino acid deletion in the exonuclease domain, complexed with thioredoxin) (Escherichia phage T7, UniProt P00581, DEL118-145); test: Inhibition of DNA synthesis on synthetic Primer-Template A, competition of dATP and ddATP (Example 9); assay type: biochemical, bacteriophage T7; conditions: in the presence of 10 µM dATP, 37°C, read-out: [ddATP] for 50% inhibition
T1 construct: made in house; host or cells: strain that produces E. coli thioredoxin (lac promoter)
Procedure: (§1) In this example the competition between a dNTP and a ddNTP is assayed for use at a single site in a synthetic primer-template. This assay differs from the others in that it limits the comparison of the use of the two substrates to a single site, avoiding the complication of sequence-specific variability in discrimination. […]
(§2) Each reaction mixture contains 25 pmoles each of primer and template. […] The mixtures are incubated at 37°C for 1 min (70°C for thermophilic DNA polymerases), and the reactions are initiated by the addition of 5 µl aliquots (0.01 to 1 unit) of the DNA polymerase being analyzed diluted in 20 mM TrisHCl, pH 7.5, 10 mM 2-mercaptoethanol and 0.05% bovine serum albumin. […] The disks are then dried under a heat lamp and counted in a scintillation counter in 5 ml of fluor (Opti-Fluor O, Packard). From the amount of radioactivity on each disk, the amount […] incorporated was determined. […]
(§3) All reactions are carried out with a constant amount of the DNA polymerase being analyzed; the amount of DNA polymerase should be sufficient to replicate 50% of the total dCMP residues in the single-stranded region of the template in the 10 min incubation in the presence of 10 µM dATP and the absence of ddATP. […]

T7 DNA polymerase Y526F = biological target: T2, T7 DNA polymerase Y526F (Escherichia phage T7, UniProt P00581, DEL118-145/Y526F); test: as above; assay type: biochemical, bacteriophage T7; conditions: in the presence of 10 µM dATP, 37°C, read-out: [ddATP] for 50% inhibition
T2 construct: made in house; host or cells: strain that produces E. coli thioredoxin (lac promoter)
Procedure: as §1, §2, §3

`Nc1ncnc2c1ncn2[C@H]1CC[C@@H](COP(=O)(O)OP(=O)(O)OP(=O)(O)O)O1` [ddATP] gave an IC50 [1] of roughly 30 µM and an IC50 (T7 DNA polymerase Y526F) greater than 500 µM.
